{"source": "patent US8633005B2", "about": "“Isocyclomaltooligosaccharide(s), isocyclomaltooligosaccharide-forming enzyme, their preparation and uses” (Hayashibara Co., Ltd., priority 2004, dated 2014)", "key": {"[1]": {"test": "Clathrating action of ICM (amount of compound clathrated, gas-chromatography)", "format": "physicochemical", "settings": "3-folds molar amount", "procedure": "ICG5 used in Experiment 15, was dissolved in deionized water to make into an aqueous solution containing 20% (w/v) of ICG5. Twenty milliliters of the aqueous solution was admixed with 3-folds amount, on a molar basis to ICG5, of either of four kinds of short chain alcohols, i.e., methanol, ethanol, propanol, and butanol; four kinds of short chain fatty acids, i.e., acetic acid, propionic acid, n-butyric acid, and n-valeic acid; and four kinds of aromatic compounds, i.e., benzyl alcohol, phenethyl alcohol, 4-phenyl-1-propanol, and o-cresol; and then stirred the mixture to homogeneity for allowing ICG5 to clathrate the compound. Successively, each solution was filtrated, and the resulting filtrate was freeze-dried to remove unclathrated compound. In order to measure the amount of compound clathrated in the freeze-dried product, the amount of each compound in each freeze-dried product was determined by gas-chromatography. Alpha-CD was used as a control and subjected to the similar test."}, "salivary α-amylase": {"molecular_target": "T1, salivary α-amylase (Homo sapiens, UniProt P0DUB6)", "T1 sequence (P0DUB6 16-511)": "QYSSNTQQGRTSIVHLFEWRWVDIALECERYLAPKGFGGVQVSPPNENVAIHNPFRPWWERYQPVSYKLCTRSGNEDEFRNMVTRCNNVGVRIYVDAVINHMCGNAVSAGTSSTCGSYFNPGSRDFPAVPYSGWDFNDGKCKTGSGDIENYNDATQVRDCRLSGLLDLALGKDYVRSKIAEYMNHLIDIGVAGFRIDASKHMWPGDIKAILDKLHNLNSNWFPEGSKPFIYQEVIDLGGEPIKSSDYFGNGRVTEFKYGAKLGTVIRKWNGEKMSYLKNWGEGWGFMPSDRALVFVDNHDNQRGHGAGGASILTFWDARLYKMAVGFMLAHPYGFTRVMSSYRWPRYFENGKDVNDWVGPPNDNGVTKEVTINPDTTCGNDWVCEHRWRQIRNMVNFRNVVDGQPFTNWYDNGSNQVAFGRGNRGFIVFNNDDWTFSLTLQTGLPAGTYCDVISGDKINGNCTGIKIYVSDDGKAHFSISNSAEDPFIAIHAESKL", "text": "43, 23-29 (1990), the digestibility of ICM by salivary α-amylase, artificial gastric juice, pancreas amylase, and small intestinal enzymes were investigated using ICG5, used in Experiment 15. […] In Table 18, the digestion (%) means a value calculated by the formula: Digestion (%)=(The amount of reducing saccharides/The amount of the total saccharides)×100 , in respective reaction described above."}, "[2]": {"test": "Thermal stability of ICM (ICG5 aqueous solution heated at 120° C.)", "format": "physicochemical", "settings": "for Degree of coloring / Purity: 5% (w/v) aqueous solution, 120° C.; for Purity: HPLC", "procedure": "ICG5, prepared from soluble starch by the method in Experiment 11 and purified to give a purity of 100% by the method in Experiment 1, was used as material. An aqueous ICG5 solution with a concentration of 5% (w/v) was prepared by dissolving ICG5 in deionized water. Then, 8 ml each of the resulting solution was pored into a glass tube, sealed closely, and then heated at 120° C. for 30 to 90 min. After cooling the solution, the degree of coloring of the solution was measured. Further, the purity of ICG5 in the solution was measured by HPLC. The degree of coloring was defined as an absorbance at 480 nm using a 1 cm-cell."}, "[3]": {"test": "Reducing power by the Somogyi-Nelson method", "format": "physicochemical", "source_text": "It was concluded that Saccharides I and II were substantially non-reducing saccharides."}, "[4]": {"test": "Amino-carbonyl reaction with polypeptone", "format": "physicochemical", "settings": "with 5% (w/v) polypeptone, 120° C., blank subtracted", "procedure": "ICG5 used in Experiment 15 and commercially available polypeptone, commercialized by Nihon Pharmaceutical Co., Ltd., Tokyo, Japan, were dissolved in deionized water to make into an aqueous solution containing […] and 5% (w/v) of polypeptone. As a control, an aqueous solution containing α-CD and polypeptone was prepared in the same manner using α-CD in place of ICG5. Four milliliters each of the solution was put in a glass tube, sealed and then heated at 120° C. for 30, 60, or 90 min. After cooling the solutions in ambient temperature, the degrees of coloring of the solutions were measured to estimate the degree of amino-carbonyl reaction. As a blank test, a solution containing polypeptone only was heated in the same manner. The degree of coloring was defined as an absorbance at 480 nm using a 1 cm-cell after subtracting the absorbance of the blank test."}, "mice": {"test_system": "mice", "test": "Acute toxicity test, oral, mice", "format": "in vivo", "source_text": "By using mice, ICG5 used in Experiment 15 was orally administrated to the mice for its acute toxicity test. […] Though not so accurate, the value of LD50 of ICG5 was 5 g/kg-mouse weight or higher."}, "[5]": {"test": "Amino-carbonyl reaction with glycine", "format": "physicochemical", "settings": "5% (w/v) saccharide + 1% (w/v) glycine, pH 7.0, 120° C., blank subtracted", "procedure": "ICG5, used in Experiment 15 and commercially available super high-grade glycine were dissolved in deionized water, and then admixed with phosphate buffer to make into an aqueous ICG5 solution containing 5% (w/v) of ICG5 and 1% (w/v) glycine, adjusted to pH 7.0. As a control, an aqueous α-cyclodextrin (α-CD) solution containing α-CD and glycine was prepared in the same manner using α-CD in place of ICG5. Four milliliters each of the solution was put in a glass tube, sealed and then heated at 120° C. for 30, 60, or 90 min. After cooling the solutions in ambient temperature, the degrees of coloring of the solutions were measured to estimate the degree of amino-carbonyl reaction. As a blank test, a solution containing glycine only was heated in the same manner. The degree of coloring was defined as an absorbance at 480 nm using a 1 cm-cell after subtracting the absorbance of the blank test."}}, "data": [{"smiles": "OCC1OC2OC3C(CO)OC(OC4C(CO)OC(OC5C(CO)OC(OCC6OC(OC1C(O)C2O)C(O)C(O)C6O)C(O)C5O)C(O)C4O)C(O)C3O", "note": "[ICG5, cyclo{→6)-α-D-glucopyranosyl-(1→4)-α-D-glucopyranosyl-(1→4)-α-D-glucopyranosyl-(1→4)-.α-D-glucopyranosyl-(1→4)α-D-glucopyranosyl-(1→}]", "values": [{"measurement": "Amount of compound clathrated", "setting": "[1]; objective compound: 4-Phenyl 1-propanol (aromatic compound)", "result": 225.2, "unit": "mg/g-freeze-dried product"}, {"measurement": "Amount of compound clathrated", "setting": "[1]; objective compound: Acetic acid (short chain fatty acid)", "result": 82.4, "unit": "mg/g-freeze-dried product"}, {"measurement": "Amount of compound clathrated", "setting": "[1]; objective compound: Benzyl alcohol (aromatic compound)", "result": 61.9, "unit": "mg/g-freeze-dried product"}, {"measurement": "Amount of compound clathrated", "setting": "[1]; objective compound: Butanol (short chain alcohol)", "result": 82.7, "unit": "mg/g-freeze-dried product"}, {"measurement": "Amount of compound clathrated", "setting": "[1]; objective compound: Ethanol (short chain alcohol)", "result": 57.6, "unit": "mg/g-freeze-dried product"}, {"measurement": "Amount of compound clathrated", "setting": "[1]; objective compound: Methanol (short chain alcohol)", "result": 33.5, "unit": "mg/g-freeze-dried product"}, {"measurement": "Amount of compound clathrated", "setting": "[1]; objective compound: Phenethyl alcohol (aromatic compound)", "result": 10.0, "unit": "mg/g-freeze-dried product"}, {"measurement": "Amount of compound clathrated", "setting": "[1]; objective compound: Propanol (short chain alcohol)", "result": 69.2, "unit": "mg/g-freeze-dried product"}, {"measurement": "Amount of compound clathrated", "setting": "[1]; objective compound: Propionic acid (short chain fatty acid)", "result": 91.4, "unit": "mg/g-freeze-dried product"}, {"measurement": "Amount of compound clathrated", "setting": "[1]; objective compound: n-Butyric acid (short chain fatty acid)", "result": 69.9, "unit": "mg/g-freeze-dried product"}, {"measurement": "Amount of compound clathrated", "setting": "[1]; objective compound: n-Valeic acid (short chain fatty acid)", "result": 48.3, "unit": "mg/g-freeze-dried product"}, {"measurement": "Amount of compound clathrated", "setting": "[1]; objective compound: o-Cresol (aromatic compound)", "result": 151.5, "unit": "mg/g-freeze-dried product"}, {"measurement": "Digestion", "setting": "small intestinal enzymes", "result": 0.2, "unit": "%"}, {"measurement": "Digestion", "setting": "salivary α-amylase", "result": 0, "unit": "%"}, {"measurement": "Degree of coloring", "setting": "[2]; heating time 0 min", "result": 0.00, "unit": "A480 nm"}, {"measurement": "Purity", "setting": "[2]; heating time 0 min", "result": 100, "unit": "%"}, {"measurement": "Degree of coloring", "setting": "[2]; heating time 30 min", "result": 0.00, "unit": "A480 nm"}, {"measurement": "Purity", "setting": "[2]; heating time 30 min", "result": 100, "unit": "%"}, {"measurement": "Degree of coloring", "setting": "[2]; heating time 60 min", "result": 0.00, "unit": "A480 nm"}, {"measurement": "Purity", "setting": "[2]; heating time 60 min", "result": 100, "unit": "%"}, {"measurement": "Degree of coloring", "setting": "[2]; heating time 90 min", "result": 0.01, "unit": "A480 nm"}, {"measurement": "Purity", "setting": "[2]; heating time 90 min", "result": 100, "unit": "%"}, {"measurement": "Thermal stability", "setting": "[2]; aqueous solution heated to 120° C.", "result": "stable under the heating condition"}, {"measurement": "Reducing power", "setting": "[3]", "result": "less than the measurable limit"}, {"measurement": "Degree of coloring", "setting": "[4]; heating time 0 min", "result": 0.00, "unit": "A480 nm"}, {"measurement": "Degree of coloring", "setting": "[4]; heating time 30 min", "result": 0.02, "unit": "A480 nm"}, {"measurement": "Degree of coloring", "setting": "[4]; heating time 60 min", "result": 0.02, "unit": "A480 nm"}, {"measurement": "Degree of coloring", "setting": "[4]; heating time 90 min", "result": 0.02, "unit": "A480 nm"}, {"measurement": "Mortality", "setting": "mice; oral, highest possible dose", "result": "no mouse died"}, {"measurement": "LD50", "setting": "mice; orally administrated, though not so accurate", "result": "≥ 5", "unit": "g/kg-mouse weight"}, {"measurement": "Degree of coloring", "setting": "[5]; heating time 0 min", "result": 0.00, "unit": "A480 nm"}, {"measurement": "Degree of coloring", "setting": "[5]; heating time 30 min", "result": 0.00, "unit": "A480 nm"}, {"measurement": "Degree of coloring", "setting": "[5]; heating time 60 min", "result": 0.00, "unit": "A480 nm"}, {"measurement": "Degree of coloring", "setting": "[5]; heating time 90 min", "result": 0.00, "unit": "A480 nm"}]}]}
